Converted amounts (≈) assume the structure as drawn. Where only a bound is given, the exact number is not on record here.

These results are taken from paper PMC8675869, “Oral Efficacy of a Diselenide Compound Loaded in Nanostructured Lipid Carriers in a Murine Model of Visceral Leishmaniasis” (ACS Infectious Diseases, 2021).

Data set [1] is described as follows: In vitro hepatic microsomal metabolism. The settings on record: BALB/c; mouse liver microsomes 0.5 mg protein/mL, 500 μM compound, NADPH, 37 °C; read-out: microsomal stability t1/2 (converted). The format is in vitro ADME, BALB/c mice. Here is the method:
Liver microsomes were isolated as previously described with minor modifications.[57] Mouse livers were removed and rinsed with 0.9% (w/v) NaCl solution. Then, livers were homogenized in ice-cold 0.25 M sucrose in 0.1 M PBS (pH 7.5). After 20 min of centrifugation at 9000 × g, the supernatant was ultracentrifuged at 100,000 × g for 1 h at 4 °C. The obtained microsome pellet was washed with 0.05 M PBS (pH 7.5) followed by another ultracentrifugation at 100,000 × g for 1 h at 4 °C. Microsomes were resuspended in 20% glycerol–0.1 M PBS and stored at −80 °C until use. Protein concentration was measured by microBCA kit (Thermo Scientific). […] Controls without hepatic cofactor and blanks without compounds were also analyzed. Metabolism was determined at 0, 0.1, 0.25, 0.5, 1, 1.5, and 2 h by the addition of an equal volume of ice-cold ACN, and samples were centrifuged at 9000 × g for 10 min. Supernatants were stored at −20 °C until high liquid performance chromatography (HPLC) quantification analysis at 290 nm, as described in the Supporting Information. Results are expressed as mean ± SD of at least three replicates. […] The rate of microsomal intrinsic clearance (Clint,micr, mL·min^–1·kg^–1) was then calculated following eq 1([27]) [drawing 1] […]
The calculated Clint,micr was used for the prediction of in vivo intrinsic hepatic clearance (Clint) using eq 2 and suitable scaling factors[27] […]

The nature of data set [2]: Solubility in fasted simulated intestinal fluid (FaSSIF). It is filed as physicochemical. The settings on record: thermodynamic from solid, fasted simulated intestinal fluid pH 6.5, 4 h, r.t., as Se content, read-out: solubility in SSIF. Here is the method:
This experiment determines the solubility of a solid compound in fasted simulated intestinal fluid (FaSSIF) at pH 6.5 after 4 h of equilibration at r.t.[58] In brief, 1 mL of FaSSIF (3 mM sodium taurocholate and 0.75 mM lecithin in sodium phosphate buffer at pH 6.5) was added to 2 mg of the solid compounds. The resulting suspensions were shaken at 900 rpm for 4 h at r.t. Then, they were centrifuged at 12,600 × g for 10 min. The amount of selenocompounds, as selenium (Se) content, remaining in the supernatant was quantified by graphite atomic absorption spectrometry, as described in the Supporting Information. Results are expressed as mean ± SD of three replicates.

A short description of data set [3]: Ex vivo intestinal permeability (Ussing chamber). The note with it: rat jejunum, mucosal-to-serosal, as Se content; for Papp at 2 h, 5 mM: female, Wistar, rat, pH 7.4, free compounds; for intestinal permeability Papp: free compounds. The format is in vitro ADME, Wistar rats. On the procedure: Intestinal permeation experiments were performed by using the Ussing chamber method as previously described.[59] Wistar female rats were fasted for 16 h with free access to water before the experiment. Rats were anesthetized with isoflurane and sacrificed by cervical dislocation. Jejunum was aseptically extracted, excised in 2 cm segments avoiding Peyer’s patches, and placed in cold 0.9% NaCl solution. Jejunum segments were anchored into the Ussing chambers. All experiments were realized from the apical side or donor compartment (DC) to the basolateral or receptor (RC) direction. For 2h and 2m compounds experiments, 5 mL of deionized water at pH 7.4 containing 4% (w/v) D-α-tocopherol polyethylene glycol 1000 succinate, and 5% (w/v) PEG 400 was added to both compartments to ensure sink conditions. In the case of NLC, 5 mL of PBS was used in both compartments. Chambers were continuously oxygenated and maintained at 37 °C. After 10 min of preincubation, the solution in the DC was replaced by 5 mL of either 2h and 2m solutions (final concentration of 5 mM) or their lyophilized NLC diluted in PBS at a 1 mM (in selenocompound concentration). Samples of 500 μL were collected from the RC every 20 min up to 2 h and replaced by an equal volume of the RC solution. Samples were frozen at −20 °C until analysis. The membrane integrity was evaluated by the addition of yellow lucifer to the DC and the determination of its fluorescence at the end of the experiment.[60] Experiments were carried out in triplicate for each compound and formulation. Se content in the RC was analyzed by flame atomic absorption spectrometry, as explained in the Supporting Information. The apparent permeability coefficient per unit membrane surface area (Papp (cm/s)), expressed as mean ± SD, was calculated according to eq 3 [drawing 3] 3 where dQ/dt was the steady-flux (mg/s), C0 was the initial compound concentration in the DC (mg/mL), and A was the surface area of the membrane (cm^2). It has been stablished that, in general, compounds with Papp > 1 × 10^–6 cm/s are well-absorbed in the human intestinal tract whereas Papp < 1 × 10^–6 cm/s are correlated with poor absorption.[32]

Data set [4] can be described thus: In vitro release from NLC in SGF and SIF. The note with it: cumulative Se release. It is filed as physicochemical. Here is the method:
The release studies of compounds 2h and 2m were performed at 37 °C using simulated gastric fluid (SGF, pH 1.2, pepsin 0.32% (w/v)) and simulated intestinal fluid (SIF, pH 6.8, pancreatin 1% (w/v)) with 2% v/v PEG 400, 5% w/v D-α-tocopherol polyethylene glycol 1000 succinate and 2.5% v/v DMSO added to ensure sink conditions. The dialysis membranes (with 100 kDa pore size) were filled with 30 mg of lyophilized formulations either 2h-NLC or 2m-NLC (corresponding to around 60 μg of the selenocompounds) dispersed in 1 mL of distilled water. The loaded dialysis membranes were placed into a beaker containing 25 mL of SGF. The simulated fluid was kept under magnetic stirring at 150 rpm, and at fixed times 0.250 mL samples were withdrawn and replaced with an equal volume of SGF. Two hours after the incubation in SGF, the device was transferred to another beaker containing 25 mL of SIF magnetically stirred at 150 rpm. As previously, at fixed times, samples were withdrawn and replaced with free SIF. The in vitro release study finished 24 h after the experiment began. The amount of Se released from the nanocarriers was determined by graphite atomic absorption spectrometry, as described in the Supporting Information. Results are expressed as mean ± SD of at least three replicates.

A short description of data set [5]: Single-dose pharmacokinetic study in mice (plasma Se). The settings on record: BALB/c, mouse, in vivo, ip, 4 mg/kg. On the procedure: A single-dose pharmacokinetic study of 2h, 2m, 2h-NLC, and 2m-NLC were evaluated in mice after i.p. (free drugs) or oral administration (free drugs and loaded into NLC). The dose (4 mg/kg) was selected taking into account LD50 obtained after i.p. administration of the compounds. Blood was collected from the submandibular plexus at different time points: 0, 0.25, 0.5, 1, 2, 4, 8, 24, and 48 h. Collected whole blood samples were centrifuged at 3000 × g for 10 min at 4 °C. The obtained plasma samples were stored at −80 °C until quantification of the drug by graphite atomic absorption spectroscopy, as described in the Supporting Information. Experiments were carried out in triplicate for each compound and formulation. Pharmacokinetic parameters were estimated by fitting the experimental data to a noncompartimental model (NCA) using PKsolver Excel program.[62] The analyzed parameters were as follows: Area under concentration–time curve (AUC), maximum serum concentration (Cmax), clearance (Cl), time of maximum concentration (tmax), mean residence time (MRT), and product half-life (t1/2). The extraction rate (ER) was calculated as the ratio between systemic blood clearance and mouse hepatic blood flow (considered 90 mL·min^–1·kg^–1). […]

The nature of data set [6]: Acute toxicity, Up-and-Down procedure (OECD 425), i.p. The note with it: mouse, in vivo, ip, 17.5 mg/kg, mice. On the procedure: Acute toxicity was carried out following the Up-and-Down procedure proposed by the OECD 425.[61] Three mice were treated with a dose of 17.5 mg/kg of each compound, 2h and 2m, administered by i.p. route. If all the mice died, 1/3 of the dose was administered to other new three mice. If all of them survived, the dose was tripled. If one or two of them died, the same dose was administered to one or two mice more. Both compounds were solubilized in PEG 400:H2O:D-α-tocopherol polyethylene glycol 1000 succinate (60:38.4:1.6, v/v/w).

For data set [7], the system named is Salmonella typhimurium (TA1535/pSK1002 strain). Description: SOS/UMU genotoxicity test. The settings on record: with or without metabolic activation, highest concentration 1 mg/mL. The format is cell-based. On the procedure:
Salmonella typhimurium (TA1535/pSK1002 strain) (DSMZ, Germany) was employed to determine the genotoxic potential of the compounds 2h and 2m and some of their possible metabolites, as previously described.[56] Bacteria were exposed to different concentrations of compounds either with or without metabolic activation (S9 mix, Mutazyme) to determine the bacterial survival percentage, calculated by measuring the absorbance at 600 nm. Afterward, the β-galactosidase activity was conducted using a colorimetric method employing o-nitrophenyl-β-D-galactopiranoside (ONPG) as a substrate. Genotoxicity activity was measured in terms of β-galactosidase activity calculating an induction factor (IF) relative to the negative control (i.e., bacteria exposed to the solvent) and positive controls (4-nitroquinoline for normal treatments and 2-aminoantracen for S9 metabolic activated treatments). A compound was considered genotoxic for IF values ≥2 at noncytotoxic concentration (i.e., bacterial survival ≥80%). The experiment was considered valid for positive controls if IF ≥ 2.

Data set [8] is described as follows: Solubilizing capability of Transcutol for the compounds. It is filed as physicochemical. The settings on record: Transcutol as solvent.
Data set [9] addresses trypanothione reductase (TR). More on the design: method as in PMID 33046492. The note with it: concentration that inhibits TR activity by 50%; read-out: TR inhibition IC50; cited from earlier work.
The next data set relates to THP-1 cells. The note with it: read-out: THP-1 cells CC50; concentration that kills cells by 50%; cited from earlier work.
For data set [10] the following is noted: cited from earlier work.
On the set-up of data set [11]: method as in PMID 25016034. The note with it: daily oral administration for 90 days; cited from earlier work.
On the set-up of data set [12]: method as in PMID 20643750. The settings on record: mice, administration for 13 weeks; cited from earlier work.
Where [13] appears, read: after 4 h of incubation in SIF (following 2 h SGF).
The mark [14] stands for this setting: first 2 h of incubation in SGF, 37 °C, sink conditions.

Regarding `O=C(Nc1ccc([Se][Se]c2ccc(NC(=O)c3ccco3)cc2)cc1)c1ccco1` [2h, N,N′-(4,4′-diselanediylbis(4,1-phenylene))bis-furan-2-carboxamide], the half-life at 500 μM in data set [1] is 1.7 h. For the same molecule, the solubility at 4 h in data set [2] was 3.2 ± 1.7 µg/mL (≈ 6.03 µM). In addition, the Papp at 2 h, 5 mM in [3] was around 0.717 ×10⁻⁶ cm/s. The “intestinal permeability Papp” value in data set [3] is listed as 7.2 ± 2.6 (×10^–7) cm/s. Also, the “compound released from NLC” value in [4] (setting [13]) is “around 13%”; in data set [4] (setting [14]) it was 5.5 ± 3.1%. In addition, the “ER (extraction ratio)” value in data set [5] is given as below 0.3. Also, the LD50 in [6] is 17.5 mg/kg. The “genotoxicity (SOS/UMU test)” value in data set [7] is “did not produce cytotoxicity and DNA damage”. The “amount of compound dissolved in Transcutol” value in data set [8] is “up to 6 mg of compound in 0.4 g”. In data set [9], the IC50 is 14 ± 0.9 µM. For the same molecule, the CC50 in the data set on THP-1 cells was above 50 µM. In [10], the logP is given as 1.

For the molecule `O=C(Nc1ccc([Se][Se]c2ccc(NC(=O)c3cccc4ccccc34)cc2)cc1)c1cccc2ccccc12` [2m, N,N′-(4,4′-diselanediylbis(4,1-phenylene))bisnaphthamide], in data set [1], the half-life at 500 μM is 1.2 h. Besides, in data set [2], the solubility at 4 h is 2.5 ± 0.5 µg/mL (≈ 3.84 µM). In data set [3], the Papp at 2 h, 5 mM was around 0.591 ×10⁻⁶ cm/s. In [3], the “intestinal permeability Papp” value is reported as 5.9 ± 1.1 (×10^–7) cm/s. The “compound released from NLC” value is reported as around 10% in data set [4] (setting [13]) and 3.9 ± 0.3% in [4] (setting [14]). In [6], the LD50 was 17.5 mg/kg. The “genotoxicity (SOS/UMU test)” value in [7] is “did not produce cytotoxicity and DNA damage”. Besides, in data set [8], the “amount of compound dissolved in Transcutol” value is listed as “up to 6 mg of compound in 0.4 g”. For the same molecule, the IC50 in [9] was 5.5 ± 0.1 µM. In addition, the CC50 with THP-1 cells is above 50 µM. Besides, the logP in data set [10] is listed as 5.

As for `CCOCCOCCO` [Transcutol, diethylene glycol monoethyl ether], the “no observed adverse effect level (NOAEL)” value in data set [11] is 850 to 1000 mg/kg/day.

Take Polysorbate 80 [Tween 80]: the NOAEL in data set [12] is recorded as 10 g/kg/day.
